Results from ChEMBL document CHEMBL1201862, “PubChem BioAssay data set” (2004).
Active and inactive are the calls of the source.

Experiments:
[1] = target: T1, C-C chemokine receptor type 6 (Homo sapiens, UniProt P51684); assay: CCR6 receptor antagonists, dose response, cell-based, luminescent beta-arrestin readout (AID 504728); format: functional
T1 sequence (P51684 whole entry): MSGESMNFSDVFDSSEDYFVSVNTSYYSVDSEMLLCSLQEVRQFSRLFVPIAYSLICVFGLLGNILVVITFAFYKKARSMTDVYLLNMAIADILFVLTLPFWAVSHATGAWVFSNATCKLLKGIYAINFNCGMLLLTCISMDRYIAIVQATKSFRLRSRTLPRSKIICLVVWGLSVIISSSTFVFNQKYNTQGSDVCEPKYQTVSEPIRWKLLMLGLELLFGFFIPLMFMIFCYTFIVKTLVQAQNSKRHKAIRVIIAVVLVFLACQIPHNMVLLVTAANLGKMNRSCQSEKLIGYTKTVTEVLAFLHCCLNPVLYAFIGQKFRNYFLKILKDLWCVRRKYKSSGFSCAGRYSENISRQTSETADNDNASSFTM

Beta-galactosidase = Beta-galactosidase (Escherichia coli, UniProt Q8VNN2); assay: beta-galactosidase enzyme inhibitors and activators, dose response, artefact control for CCR6 antagonist project, biochemical, E. coli enzyme, set 3 (AID 504712); format: functional
Aminopeptidase N = target: T2, Aminopeptidase N (Plasmodium falciparum FcB1/Columbia, UniProt O96935); assay: P. falciparum M1AAP inhibitors, biochemical, fluorogenic H-Leu-NHMec substrate, 1536-well (AID 1445); set-up: species or system Plasmodium falciparum 3D7, 3D7
T2 sequence (O96935 whole entry): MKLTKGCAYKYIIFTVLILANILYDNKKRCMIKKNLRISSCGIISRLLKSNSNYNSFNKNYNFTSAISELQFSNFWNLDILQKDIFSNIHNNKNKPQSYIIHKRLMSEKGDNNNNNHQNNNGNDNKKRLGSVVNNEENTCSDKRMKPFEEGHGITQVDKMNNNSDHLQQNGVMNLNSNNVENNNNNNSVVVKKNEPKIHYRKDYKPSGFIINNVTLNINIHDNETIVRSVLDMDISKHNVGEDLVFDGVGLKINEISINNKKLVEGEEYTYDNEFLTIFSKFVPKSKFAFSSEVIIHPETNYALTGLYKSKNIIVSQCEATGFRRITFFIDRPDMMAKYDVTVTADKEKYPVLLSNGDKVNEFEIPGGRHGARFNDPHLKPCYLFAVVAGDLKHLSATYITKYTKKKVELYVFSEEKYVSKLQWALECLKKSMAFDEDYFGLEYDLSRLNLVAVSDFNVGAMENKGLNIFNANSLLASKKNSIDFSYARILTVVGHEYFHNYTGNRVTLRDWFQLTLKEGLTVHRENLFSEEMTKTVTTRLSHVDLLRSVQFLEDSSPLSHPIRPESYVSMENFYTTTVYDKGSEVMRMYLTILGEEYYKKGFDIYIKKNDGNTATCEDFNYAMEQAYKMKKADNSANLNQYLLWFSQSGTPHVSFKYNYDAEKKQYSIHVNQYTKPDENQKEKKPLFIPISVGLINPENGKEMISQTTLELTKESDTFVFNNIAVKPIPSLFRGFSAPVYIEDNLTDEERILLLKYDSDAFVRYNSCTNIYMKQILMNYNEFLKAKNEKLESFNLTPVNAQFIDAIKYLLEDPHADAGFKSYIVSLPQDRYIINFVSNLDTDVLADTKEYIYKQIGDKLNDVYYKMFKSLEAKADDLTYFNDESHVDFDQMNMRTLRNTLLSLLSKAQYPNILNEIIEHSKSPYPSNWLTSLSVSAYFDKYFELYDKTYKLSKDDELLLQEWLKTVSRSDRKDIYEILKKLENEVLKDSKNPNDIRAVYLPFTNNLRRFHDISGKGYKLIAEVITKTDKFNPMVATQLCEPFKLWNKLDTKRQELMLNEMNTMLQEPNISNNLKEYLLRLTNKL

[2] = target: T3, Acyl-homoserine lactone acylase PvdQ (Pseudomonas aeruginosa (strain LESB58), UniProt Q9I194); assay: P. aeruginosa PvdQ acylase inhibitors, dose response, biochemical, fluorescence, plate reader and imaging, cherry-picks (AID 493231)
T3 sequence (Q9I194 whole entry): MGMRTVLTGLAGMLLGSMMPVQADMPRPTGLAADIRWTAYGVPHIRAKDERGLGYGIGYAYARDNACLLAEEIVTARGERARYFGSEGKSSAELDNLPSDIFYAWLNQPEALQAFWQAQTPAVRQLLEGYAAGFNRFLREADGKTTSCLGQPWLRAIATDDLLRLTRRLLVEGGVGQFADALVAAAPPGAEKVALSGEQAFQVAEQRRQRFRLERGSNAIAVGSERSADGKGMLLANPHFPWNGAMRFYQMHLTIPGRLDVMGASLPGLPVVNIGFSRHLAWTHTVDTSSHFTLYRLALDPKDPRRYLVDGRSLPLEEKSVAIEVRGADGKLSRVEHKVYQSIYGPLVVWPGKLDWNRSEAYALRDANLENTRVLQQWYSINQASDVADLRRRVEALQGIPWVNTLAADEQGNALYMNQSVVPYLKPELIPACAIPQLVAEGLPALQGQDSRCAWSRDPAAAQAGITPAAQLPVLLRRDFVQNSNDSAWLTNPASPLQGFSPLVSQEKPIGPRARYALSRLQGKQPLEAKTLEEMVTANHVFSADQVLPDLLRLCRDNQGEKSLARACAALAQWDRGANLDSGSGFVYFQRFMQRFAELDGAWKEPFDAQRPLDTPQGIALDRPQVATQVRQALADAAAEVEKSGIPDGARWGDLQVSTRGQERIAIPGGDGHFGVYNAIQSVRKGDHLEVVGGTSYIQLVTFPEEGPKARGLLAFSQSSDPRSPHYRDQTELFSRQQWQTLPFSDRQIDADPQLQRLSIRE

[3] = target: T4, Neuropeptide Y receptor type 2 (Homo sapiens, UniProt P49146); assay: Fluorescence-based cell-based high-throughput dose response assay for agonists of NPY-Y2. [Related pubchem assays: 1703 (Screening assay (CNGC inhibitors).), 1359 (Screening assay (NPY-Y2 potentiators or agonists).), 1304 (Screening assay (NPY-Y1 potentiators or agonists).), 1710 (Screening assay (NPY-Y2 agonists).), 1791 (Summary AID.)]; format: functional
T4 sequence (P49146 whole entry): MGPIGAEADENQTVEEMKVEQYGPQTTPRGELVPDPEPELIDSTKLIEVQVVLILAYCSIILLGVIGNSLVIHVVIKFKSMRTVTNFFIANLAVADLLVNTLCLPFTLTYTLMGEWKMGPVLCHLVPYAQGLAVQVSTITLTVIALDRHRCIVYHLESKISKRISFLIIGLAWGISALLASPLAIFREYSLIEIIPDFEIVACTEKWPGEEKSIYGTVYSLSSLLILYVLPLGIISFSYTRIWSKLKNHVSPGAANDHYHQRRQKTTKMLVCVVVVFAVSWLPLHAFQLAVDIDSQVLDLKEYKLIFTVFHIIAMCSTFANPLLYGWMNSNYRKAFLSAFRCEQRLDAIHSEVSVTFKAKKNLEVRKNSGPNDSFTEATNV

[4] = target: T5, Neuropeptide Y receptor type 1 (Homo sapiens, UniProt P25929); assay: Fluorescence-based counterscreen for agonists of NPY-Y2: cell-based high-throughput dose response assay for agonists of NPY-Y1.; format: functional
T5 sequence (P25929 whole entry): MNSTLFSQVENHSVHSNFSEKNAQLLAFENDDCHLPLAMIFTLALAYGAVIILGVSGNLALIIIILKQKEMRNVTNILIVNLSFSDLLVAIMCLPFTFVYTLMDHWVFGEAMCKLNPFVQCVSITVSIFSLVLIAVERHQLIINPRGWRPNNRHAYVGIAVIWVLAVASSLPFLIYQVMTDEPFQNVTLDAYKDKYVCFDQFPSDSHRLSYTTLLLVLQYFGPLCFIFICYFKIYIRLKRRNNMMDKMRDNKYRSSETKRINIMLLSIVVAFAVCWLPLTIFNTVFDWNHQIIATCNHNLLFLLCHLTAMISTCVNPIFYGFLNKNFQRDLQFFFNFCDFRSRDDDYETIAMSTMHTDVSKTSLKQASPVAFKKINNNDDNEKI

Streptokinase A = target: T6, Streptokinase A (Streptococcus pyogenes serotype M1, UniProt P10520); assay: S. pyogenes streptokinase expression inhibitors, potency, dose response, plasminogen activation absorbance, OD405 (AID 1914); format: functional, Streptococcus pyogenes M1 GAS;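 note: secreted streptokinase activity via plasminogen activation per viability signal from cell pellet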
T6 sequence (P10520 whole entry): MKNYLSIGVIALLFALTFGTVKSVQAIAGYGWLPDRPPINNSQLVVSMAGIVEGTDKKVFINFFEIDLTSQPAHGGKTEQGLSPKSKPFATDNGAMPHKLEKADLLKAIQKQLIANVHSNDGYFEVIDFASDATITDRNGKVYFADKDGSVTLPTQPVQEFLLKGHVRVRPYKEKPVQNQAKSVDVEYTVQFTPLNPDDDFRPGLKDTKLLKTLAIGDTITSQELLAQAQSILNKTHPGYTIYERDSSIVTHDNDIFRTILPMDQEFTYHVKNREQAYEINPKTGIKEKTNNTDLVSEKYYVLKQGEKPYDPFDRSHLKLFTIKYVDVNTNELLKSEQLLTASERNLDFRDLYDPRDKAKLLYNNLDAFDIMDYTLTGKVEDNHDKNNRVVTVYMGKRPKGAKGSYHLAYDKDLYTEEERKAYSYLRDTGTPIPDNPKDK

Protein RecA = target: T7, Protein RecA (Mycobacterium tuberculosis, UniProt P9WHJ3); assay: Fluorescence Cell-Free Homogeneous Dose Retest to Identify Inhibitors of RecA-Intein Splicing Activity. [Related pubchem assays (depositor defined):AID2097, AID2223, AID489010, AID492950]; format: functional
T7 sequence (P9WHJ3 whole entry): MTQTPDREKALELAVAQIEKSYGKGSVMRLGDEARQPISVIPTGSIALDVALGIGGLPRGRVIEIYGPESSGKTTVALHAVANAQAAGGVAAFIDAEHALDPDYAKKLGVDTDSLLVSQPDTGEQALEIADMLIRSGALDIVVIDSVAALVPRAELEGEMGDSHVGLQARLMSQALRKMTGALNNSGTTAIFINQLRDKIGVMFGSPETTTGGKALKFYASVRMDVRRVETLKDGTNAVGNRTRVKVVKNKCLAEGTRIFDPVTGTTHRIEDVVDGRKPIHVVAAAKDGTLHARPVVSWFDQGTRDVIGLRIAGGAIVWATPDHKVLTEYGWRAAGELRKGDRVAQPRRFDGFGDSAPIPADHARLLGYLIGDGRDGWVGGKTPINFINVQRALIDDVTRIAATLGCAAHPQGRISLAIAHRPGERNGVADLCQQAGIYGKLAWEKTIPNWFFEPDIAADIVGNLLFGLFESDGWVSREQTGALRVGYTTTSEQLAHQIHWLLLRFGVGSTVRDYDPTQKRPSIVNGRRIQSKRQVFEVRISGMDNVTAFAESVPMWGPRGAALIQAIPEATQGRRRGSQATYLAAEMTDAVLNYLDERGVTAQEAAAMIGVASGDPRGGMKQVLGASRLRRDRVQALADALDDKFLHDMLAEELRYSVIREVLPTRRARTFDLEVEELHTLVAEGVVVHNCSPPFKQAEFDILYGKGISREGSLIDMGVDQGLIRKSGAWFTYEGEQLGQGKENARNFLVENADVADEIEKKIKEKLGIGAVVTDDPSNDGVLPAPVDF

[5] = target: T8, Replicative DNA helicase DnaB (Mycobacterium tuberculosis, UniProt P9WMR3); assay: DnaB intein splicing inhibitors, dose response, biochemical, cell-free fluorescence (AID 449749); format: functional
T8 sequence (P9WMR3 whole entry): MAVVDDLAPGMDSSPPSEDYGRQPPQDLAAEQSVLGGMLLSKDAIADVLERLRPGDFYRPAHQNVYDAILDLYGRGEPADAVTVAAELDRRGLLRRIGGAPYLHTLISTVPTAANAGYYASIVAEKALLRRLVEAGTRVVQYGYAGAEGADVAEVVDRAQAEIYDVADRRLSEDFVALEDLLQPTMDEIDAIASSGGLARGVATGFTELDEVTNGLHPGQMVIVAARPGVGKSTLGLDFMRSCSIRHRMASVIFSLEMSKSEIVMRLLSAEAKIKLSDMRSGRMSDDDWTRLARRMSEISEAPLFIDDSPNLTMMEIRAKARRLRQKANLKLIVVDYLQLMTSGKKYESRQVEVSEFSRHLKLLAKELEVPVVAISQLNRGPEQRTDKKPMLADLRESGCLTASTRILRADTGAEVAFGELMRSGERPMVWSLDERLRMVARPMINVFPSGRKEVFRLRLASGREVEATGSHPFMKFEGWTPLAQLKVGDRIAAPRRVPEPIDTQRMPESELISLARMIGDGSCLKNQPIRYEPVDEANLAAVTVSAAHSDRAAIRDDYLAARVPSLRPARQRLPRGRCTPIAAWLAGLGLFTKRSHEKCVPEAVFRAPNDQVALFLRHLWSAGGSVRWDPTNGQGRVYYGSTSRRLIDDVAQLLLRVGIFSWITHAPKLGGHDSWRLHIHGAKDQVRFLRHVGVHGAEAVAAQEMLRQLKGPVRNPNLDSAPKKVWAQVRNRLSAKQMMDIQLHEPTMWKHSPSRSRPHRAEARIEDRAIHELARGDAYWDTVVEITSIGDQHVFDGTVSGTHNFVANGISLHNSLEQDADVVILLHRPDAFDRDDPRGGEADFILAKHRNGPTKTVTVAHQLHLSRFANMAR

Sequence of Beta-galactosidase (Q8VNN2 whole entry): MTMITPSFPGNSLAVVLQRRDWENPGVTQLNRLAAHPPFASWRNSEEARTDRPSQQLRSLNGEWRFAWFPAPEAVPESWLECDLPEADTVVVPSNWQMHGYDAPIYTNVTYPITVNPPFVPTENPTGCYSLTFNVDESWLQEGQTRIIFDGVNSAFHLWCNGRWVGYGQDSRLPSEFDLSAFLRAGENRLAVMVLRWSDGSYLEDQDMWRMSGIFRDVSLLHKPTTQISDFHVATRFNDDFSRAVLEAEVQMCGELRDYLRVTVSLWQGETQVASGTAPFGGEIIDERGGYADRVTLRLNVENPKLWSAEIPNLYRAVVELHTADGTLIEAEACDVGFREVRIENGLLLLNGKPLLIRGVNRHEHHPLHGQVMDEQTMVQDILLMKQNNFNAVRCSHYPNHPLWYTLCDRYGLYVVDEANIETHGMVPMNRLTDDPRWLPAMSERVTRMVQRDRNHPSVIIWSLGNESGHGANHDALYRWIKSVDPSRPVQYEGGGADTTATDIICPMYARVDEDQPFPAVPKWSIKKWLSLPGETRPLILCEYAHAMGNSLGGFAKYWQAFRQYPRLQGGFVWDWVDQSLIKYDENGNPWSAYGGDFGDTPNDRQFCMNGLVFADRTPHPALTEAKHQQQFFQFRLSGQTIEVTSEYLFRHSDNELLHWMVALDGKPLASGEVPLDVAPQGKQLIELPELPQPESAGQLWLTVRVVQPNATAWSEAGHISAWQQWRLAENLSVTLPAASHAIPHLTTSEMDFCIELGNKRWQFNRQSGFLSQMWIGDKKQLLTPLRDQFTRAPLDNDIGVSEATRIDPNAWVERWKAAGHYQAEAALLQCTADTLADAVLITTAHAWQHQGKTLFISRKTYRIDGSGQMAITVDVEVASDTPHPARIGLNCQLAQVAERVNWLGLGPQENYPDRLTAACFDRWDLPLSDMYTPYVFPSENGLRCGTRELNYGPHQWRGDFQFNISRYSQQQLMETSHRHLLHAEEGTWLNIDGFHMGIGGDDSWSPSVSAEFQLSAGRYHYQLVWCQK

CC(=O)O/C(=C1\CC2C3CC=C4CC(OC(C)=O)CCC4(C)C3CCC2(C)C1=O)C(F)(F)F (stereo not drawn)
IC50 [1]: > 66.6 µM (inactive) | IC50 (Beta-galactosidase): > 66.6 µM (inactive)

O=C1N=C(NS(=O)(=O)Cc2ccccc2)S/C1=C/c1cccc([N+](=O)[O-])c1
IC50 (Aminopeptidase N): 50.2 µM (active)

O=C(NC1CCS(=O)(=O)C1)c1cccc(Br)c1 (stereo not drawn)
AC50 [2]: 8.94 µM (active)

Fc1ccc(N2N=C(c3cccs3)CC2c2ccco2)c(F)c1 (stereo not drawn)
IC50 (Aminopeptidase N): 107 µM (active)

CC(=O)C(=NNc1cccc(Cl)c1)Nc1ccc(Cl)cc1Cl
EC50 [3]: 21.2 µM (not active) | EC50 [4]: 12.6 µM (not active) | EC50 (Streptokinase A): 2.72 µM (active) | EC50 (Protein RecA): 49 µM (active) | AC50 [5]: 379 µM (active)

CCOC(=O)N1CCN(c2ccc(Cl)cc2)CC1
AC50 [2]: 7.18 µM (active)

COc1cccc(C(=O)CC(C#N)c2ccc(F)cc2)c1 (stereo not drawn)
AC50 [2]: 6.55 µM (active)

CNC(=O)c1nc[nH]c1C(=O)N[C@@H](CC(C)C)C(=O)OC(C)(C)C
IC50 (Aminopeptidase N): 39.3 µM (active)
